Results on 11 compounds are retold here after PubChem BioAssay (NCI).

Some test systems named below: NCI-H226 lung; OVCAR-5 ovarian; UACC-62 melanoma; COLO 205 colon; OVCAR-4 ovarian; NCI/ADR-RES ovarian; 786-0 renal; NCI-H460 lung; OVCAR-3 ovarian; LOX IMVI melanoma; EKVX NSCLC; CCRF-CEM leukemia.
Experiment in all cases: inhibition of tumour cell growth, NCI panel, 48 h

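Following 48 hours of exposure in 96-well plates, responses at five concentrations were used to interpolate endpoints linearly. TGI marks complete inhibition of growth.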

`O=C(c1cc2c(c3ccccc13)NC1(CCCCC1)N=C2C(F)(F)F)C(F)(F)F`: the TGI turned out to be 11 µM with NCI-H226 lung; 21.5 µM with OVCAR-5 ovarian; 13.6 µM in the assay with UACC-62 melanoma; 18.1 µM in the assay on COLO 205 colon; 14.9 µM in the assay on OVCAR-4 ovarian; 17 µM in the assay with NCI/ADR-RES ovarian. In addition, the TGI turned out to be 14.1 µM in the assay with 786-0 renal; 10.9 µM with NCI-H460 lung; 7.81 µM in the assay on OVCAR-3 ovarian; 12.1 µM in the assay on LOX IMVI melanoma; 15.7 µM with EKVX NSCLC; 13.1 µM with CCRF-CEM leukemia.
Turning to `O=C(OCCNC(=O)N1CC1)OCCNC(=O)N1CC1`, the TGI in the assay with NCI-H226 lung, with OVCAR-5 ovarian, with UACC-62 melanoma, in the assay on COLO 205 colon, with OVCAR-4 ovarian and in the assay with NCI/ADR-RES ovarian was over 10 µM each time. Also, the TGI in the assay with 786-0 renal, in the assay on NCI-H460 lung, in the assay with OVCAR-3 ovarian, with LOX IMVI melanoma, with EKVX NSCLC and in the assay with CCRF-CEM leukemia was over 10 µM in each case.
Take `CCO/C=N/C1=C(C#N)SC2=N/C(=C\c3ccccc3)C(=O)N21`: the TGI in the assay on NCI-H226 lung, in the assay with OVCAR-5 ovarian, in the assay on UACC-62 melanoma, in the assay with COLO 205 colon, with OVCAR-4 ovarian and with NCI/ADR-RES ovarian was over 100 µM each time. Besides, the TGI with 786-0 renal, with NCI-H460 lung, with OVCAR-3 ovarian, in the assay on LOX IMVI melanoma, in the assay on EKVX NSCLC and with CCRF-CEM leukemia was over 100 µM each time.
In the case of `CCOC(=O)c1c(NC(=S)Nc2ccccc2)sc2c1CCOC2`, the TGI with NCI-H226 lung, with OVCAR-5 ovarian, in the assay with UACC-62 melanoma, in the assay with COLO 205 colon, in the assay on OVCAR-4 ovarian and in the assay with NCI/ADR-RES ovarian was over 100 µM in each case. Moreover, the TGI in the assay with 786-0 renal, with NCI-H460 lung, with OVCAR-3 ovarian, with LOX IMVI melanoma, with EKVX NSCLC and in the assay with CCRF-CEM leukemia was over 100 µM throughout.
Turning to `O=C(c1ccccc1)N1C(=S)N(c2ccccn2)C(=Nc2ccccc2)C1=Nc1ccccc1`, the TGI in the assay with NCI-H226 lung is over 100 µM; in the assay with OVCAR-5 ovarian, over 44.3 µM; in the assay with UACC-62 melanoma it was over 41.3 µM; with COLO 205 colon, over 52.7 µM; in the assay on OVCAR-4 ovarian, 32.5 µM; in the assay with NCI/ADR-RES ovarian, over 48.3 µM. The TGI in the assay with 786-0 renal is over 82.8 µM; in the assay on NCI-H460 lung, over 70.6 µM; in the assay on OVCAR-3 ovarian it was 45.6 µM; in the assay with LOX IMVI melanoma it was over 48.9 µM; in the assay with EKVX NSCLC it was over 100 µM; with CCRF-CEM leukemia, over 24.7 µM.
With `C=C1C[C@H](O)[C@H](Br)C(C)(C)C12CCC(C)(Cl)C(Br)C2` (some centres not stated), the TGI came to 12.7 µM in the assay on NCI-H226 lung; 4.25 µM in the assay on OVCAR-5 ovarian; 15.6 µM with UACC-62 melanoma; 2.29 µM in the assay with COLO 205 colon; 7.95 µM in the assay with OVCAR-4 ovarian; 20.7 µM with NCI/ADR-RES ovarian. The TGI with 786-0 renal turned out to be 15.4 µM; in the assay on NCI-H460 lung it was 9.95 µM; in the assay on OVCAR-3 ovarian, 15.7 µM; in the assay on LOX IMVI melanoma, 20.1 µM; with EKVX NSCLC, 1.61 µM; in the assay on CCRF-CEM leukemia, 75 µM.
For the compound `CN(C)c1ccc(C=C2C(=O)NC(=S)NC2=O)c2ccccc12`, the TGI in the assay on NCI-H226 lung, in the assay with OVCAR-5 ovarian, with UACC-62 melanoma, in the assay with COLO 205 colon, in the assay on OVCAR-4 ovarian and in the assay with NCI/ADR-RES ovarian was over 100 µM each time. Besides, the TGI in the assay on 786-0 renal was over 100 µM; with NCI-H460 lung, over 100 µM; in the assay with OVCAR-3 ovarian, over 100 µM; in the assay on LOX IMVI melanoma, 77 µM; in the assay with EKVX NSCLC, over 100 µM; with CCRF-CEM leukemia, over 100 µM.
As for `CC1=C(C)SC(=C2Sc3nc(O)[nH]c(=O)c3S2)S1`, the TGI in the assay on NCI-H226 lung was over 100 µM; in the assay on OVCAR-5 ovarian it was over 100 µM; with UACC-62 melanoma, 59.4 µM; in the assay with COLO 205 colon, over 100 µM; with OVCAR-4 ovarian, over 100 µM; with NCI/ADR-RES ovarian it was over 100 µM. The TGI with 786-0 renal, in the assay with NCI-H460 lung, in the assay with OVCAR-3 ovarian, in the assay on LOX IMVI melanoma, with EKVX NSCLC and in the assay with CCRF-CEM leukemia was over 100 µM each time.
Consider `COc1ccc(-c2oc3c(OC)c(OC)cc(O)c3c(=O)c2OC)cc1`, for which the TGI in the assay on NCI-H226 lung, in the assay on OVCAR-5 ovarian, in the assay with UACC-62 melanoma, in the assay on COLO 205 colon, in the assay with OVCAR-4 ovarian and with NCI/ADR-RES ovarian was over 100 µM each time. Besides, the TGI with 786-0 renal, in the assay on NCI-H460 lung, in the assay with OVCAR-3 ovarian, in the assay with LOX IMVI melanoma, in the assay on EKVX NSCLC and in the assay on CCRF-CEM leukemia was over 100 µM in each case.
For the compound `O=C1CC(NCc2ccccc2)c2c(Cl)sc(Cl)c21` (configuration not stated), the TGI in the assay with NCI-H226 lung was over 63.5 µM; in the assay on OVCAR-5 ovarian, over 100 µM; in the assay with UACC-62 melanoma, 24.3 µM; in the assay on COLO 205 colon it was 56 µM; in the assay with OVCAR-4 ovarian, over 87.3 µM; in the assay on NCI/ADR-RES ovarian, over 86.3 µM. The TGI in the assay on 786-0 renal is 57.8 µM; with NCI-H460 lung, over 100 µM; with OVCAR-3 ovarian it was 47.3 µM; with LOX IMVI melanoma, 18.5 µM; in the assay on EKVX NSCLC, over 100 µM; in the assay on CCRF-CEM leukemia it was 9.44 µM.
Regarding `CC(=O)OC(C)(C)CCC(=O)[C@](C)(O)[C@H]1[C@H](O)C[C@@]2(C)[C@@H]3CCc4c(cc(OC5OC(CO)C(O)C(O)C5O)c(O)c4C)C3(C)C(=O)C[C@]12C` (some centres not stated), the TGI in the assay with NCI-H226 lung, with OVCAR-5 ovarian, in the assay with UACC-62 melanoma, in the assay with COLO 205 colon, with OVCAR-4 ovarian and in the assay with NCI/ADR-RES ovarian was over 100 µM each time. For the same compound, the TGI in the assay on 786-0 renal, in the assay with NCI-H460 lung, with OVCAR-3 ovarian, with LOX IMVI melanoma, in the assay with EKVX NSCLC and in the assay with CCRF-CEM leukemia was over 100 µM each time.
